Data as given in article PMC3032312 (Cell Death & Disease, 2010).

Columns and labels:
[1] = test system: 36 selected tumor cell lines; test: ATP-Lite cell viability assay; assay type: cell-based, human; conditions: 72 h
Bcl-B = target: T1, Bcl-B (Homo sapiens, UniProt Q9HD36); conditions: displacement of fluorochrome-conjugated BH3 Bid peptide; ABT-737; cited from earlier work
T1 sequence (Q9HD36 1-204): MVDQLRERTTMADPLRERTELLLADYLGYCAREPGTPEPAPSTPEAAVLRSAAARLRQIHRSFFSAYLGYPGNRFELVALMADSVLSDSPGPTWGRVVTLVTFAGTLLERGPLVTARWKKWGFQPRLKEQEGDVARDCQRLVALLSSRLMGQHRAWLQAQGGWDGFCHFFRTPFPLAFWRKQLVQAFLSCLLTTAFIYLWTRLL

Bfl-1 = conditions: displacement of fluorochrome-conjugated BH3 Bid peptide; cited from earlier work
Mcl-1 = conditions: displacement of fluorochrome-conjugated BH3 Bid peptide; cited from earlier work

Structure (SMILES): CN(C)CC[C@H](CSc1ccccc1)Nc1ccc(S(=O)(=O)NC(=O)c2ccc(N3CCN(Cc4ccccc4-c4ccc(Cl)cc4)CC3)cc2)cc1[N+](=O)[O-] [ABT-737]
- cell killing effect in six of the studied cell lines ([1]; concentration range tested 0.1-30 μM): no effect
- cytotoxic activity against leukemia/lymphoma lines ([1]; leukemia/lymphoma lines, ATP-Lite): potent cytotoxic activity
- IC50 values, Bcl-B (Bcl-B): not active
- IC50 values, Bfl-1 (Bfl-1): not active
- IC50 values, Mcl-1 (Mcl-1): not active
